Data reported in PubChem BioAssay AID1259407 (Chemical Carcinogenesis Research Information System (CCRIS), 2018).
Active and inactive are the calls of the source. How the calls were made is not given here.

System: CCRIS mutagenicity, Ames/micronucleus/aberration tests
Assay: CCRIS mutagenicity studies
[1] = Test System: AMES SALMONELLA TYPHIMURIUM, Strain/Indicator: TA97, Metabolic Activation: NONE, Method: STANDARD PLATE
[2] = Test System: AMES SALMONELLA TYPHIMURIUM, Strain/Indicator: TA98, Metabolic Activation: NONE, Method: STANDARD PLATE
[3] = Test System: AMES SALMONELLA TYPHIMURIUM, Strain/Indicator: TA100, Metabolic Activation: NONE, Method: STANDARD PLATE

O=C1NC(=O)c2ccccc21 was tested, and the mutagenic call (Test System: Ames Salmonella typhimurium, Strain/Indicator: TA98, Metabolic Activation: None, Method: Preincubation) was “inactive; negative”, the mutagenic call (Test System: Ames Salmonella typhimurium, Strain/Indicator: TA98, Metabolic Activation: Rat, Liver, S-9, Phenobarbital and 5,6-benzoflavone, Method: Preincubation) was “inactive; negative” and the mutagenic call (Test System: Ames Salmonella typhimurium, Strain/Indicator: TA100, Metabolic Activation: None, Method: Preincubation) was “inactive; negative”. The mutagenic call (Test System: Ames Salmonella typhimurium, Strain/Indicator: TA100, Metabolic Activation: Rat, Liver, S-9, Phenobarbital and 5,6-benzoflavone, Method: Preincubation) was “inactive; negative”, the mutagenic call (Test System: Ames Salmonella typhimurium, Strain/Indicator: TA1535, Metabolic Activation: None, Method: Preincubation) was “inactive; negative” and the mutagenic call (Test System: Ames Salmonella typhimurium, Strain/Indicator: TA1535, Metabolic Activation: Rat, Liver, S-9, Phenobarbital and 5,6-benzoflavone, Method: Preincubation) was “inactive; negative”. The mutagenic call (Test System: Ames Salmonella typhimurium, Strain/Indicator: TA1537, Metabolic Activation: None, Method: Preincubation) was “inactive; negative”, the mutagenic call (Test System: Ames Salmonella typhimurium, Strain/Indicator: TA1537, Metabolic Activation: Rat, Liver, S-9, Phenobarbital and 5,6-benzoflavone, Method: Preincubation) was “inactive; negative” and the mutagenic call (Test System: E. coli, Strain/Indicator: WP2uvrA/pKM101, Metabolic Activation: None, Method: Preincubation) was “inactive; negative”. The mutagenic call (Test System: E. coli, Strain/Indicator: WP2uvrA/pKM101, Metabolic Activation: Rat, Liver, S-9, Phenobarbital and 5,6-benzoflavone, Method: Preincubation) was “inactive; negative”.

With CC(Cl)(Cl)Cl the mutagenic call (End Point: IN VITRO CHROMOSOMAL ABERRATIONS, Test System: CHINESE HAMSTER OVARY CELLS, Metabolic Activation: NONE) was “active; positive”, the mutagenic call (End Point: IN VITRO CHROMOSOMAL ABERRATIONS, Test System: CHINESE HAMSTER OVARY CELLS, Metabolic Activation: RAT, LIVER, S-9, AROCLOR 1254) was “inactive; negative” and the mutagenic call (End Point: In vitro chromosomal aberrations, Test System: Chinese hamster lung (CHL/IU) cells, Metabolic Activation: Rat, Liver, S9, Phenobarbital and 5,6-benzoflavone) was “inactive; negative (structural changes and ploidy showed weak response without dose respon”. The mutagenic call [1] was “active; positive”, the mutagenic call (Test System: AMES SALMONELLA TYPHIMURIUM, Strain/Indicator: TA97, Metabolic Activation: RAT, LIVER S-9, AROCLOR 1254, Method: STANDARD PLATE) was “active; positive” and the mutagenic call [2] was “active; positive”. The mutagenic call (Test System: AMES SALMONELLA TYPHIMURIUM, Strain/Indicator: TA98, Metabolic Activation: RAT, LIVER S-9, AROCLOR 1254, Method: STANDARD PLATE) was “active; positive”, the mutagenic call [3] was “active; positive” and the mutagenic call (Test System: AMES SALMONELLA TYPHIMURIUM, Strain/Indicator: TA100, Metabolic Activation: NONE, Method: VAPOR CHAMBER) was “active; positive”. For the same molecule, the mutagenic call (Test System: AMES SALMONELLA TYPHIMURIUM, Strain/Indicator: TA100, Metabolic Activation: RAT, LIVER S-9, AROCLOR 1254, Method: STANDARD PLATE) was “inactive; negative”, the mutagenic call (Test System: AMES SALMONELLA TYPHIMURIUM, Strain/Indicator: TA100, Metabolic Activation: RAT, LIVER, S-9, AROCLOR 1254, Method: DESICCATOR) was “active; positive” and the mutagenic call (Test System: AMES SALMONELLA TYPHIMURIUM, Strain/Indicator: TA100, Metabolic Activation: RAT, LIVER, S-9, AROCLOR 1254, Method: VAPOR CHAMBER) was “active; positive”. For the same molecule, the mutagenic call (Test System: AMES SALMONELLA TYPHIMURIUM, Strain/Indicator: TA104, Metabolic Activation: NONE, Method: STANDARD PLATE) was “inactive; negative”, the mutagenic call (Test System: AMES SALMONELLA TYPHIMURIUM, Strain/Indicator: TA104, Metabolic Activation: RAT, LIVER, S-9, AROCLOR 1254, Method: STANDARD PLATE) was “active; positive” and the mutagenic call (Test System: AMES SALMONELLA TYPHIMURIUM, Strain/Indicator: TA1535, Metabolic Activation: NONE, Method: VAPOR CHAMBER) was “active; positive”. The mutagenic call (Test System: AMES SALMONELLA TYPHIMURIUM, Strain/Indicator: TA1535, Metabolic Activation: RAT, LIVER, S-9, AROCLOR 1254, Method: VAPOR CHAMBER) was “active; positive”.

For Cc1ccc(NC(=O)c2csc([N+](=O)[O-])c2)cc1, the mutagenic call [2] was “active; positive” and the mutagenic call [3] was “active; positive”.

With CC1(C)[C@H](/C=C(\Cl)C(F)(F)F)[C@@H]1C(=O)O[C@@H](C#N)c1cccc(Oc2ccccc2)c1 the mutagenic call (End Point: IN VIVO CHROMOSOMAL ABERRATIONS, Test System: BONE MARROW, Species: RAT, Strain/Sex: WISTAR/FEMALE, Route: IP) was “active; positive (structural changes)”, the mutagenic call (End Point: IN VIVO MICRONUCLEUS, Test System: BONE MARROW POLYCHROMATIC ERYTHROCYTES, Species: RAT, Strain/Sex: WISTAR/FEMALE, Route: ORAL (GAVAGE)) was “active; positive” and the mutagenic call (End Point: IN VIVO MICRONUCLEUS, Test System: BONE MARROW, Species: RAT, Strain/Sex: WISTAR/FEMALE, Route: IP) was “active; positive”. The mutagenic call (End Point: IN VIVO MICRONUCLEUS, Test System: POLYCHROMATIC ERYTHROCYTES FROM COLONIC CRYPT EPITHELIAL CELLS, Species: RAT, Strain/Sex: WISTAR/FEMALE, Route: ORAL (GAVAGE)) was “active; positive”.

For CC(=O)c1cc2c(cc1C)C(C)(C)C(C)C2(C)C (stereo not given), the mutagenic call [1] was “inactive; negative”, the mutagenic call (Test System: AMES SALMONELLA TYPHIMURIUM, Strain/Indicator: TA97, Metabolic Activation: RAT LIVER S-9, AROCLOR 1254, Method: STANDARD PLATE) was “inactive; negative” and the mutagenic call [2] was “inactive; negative”. For the same molecule, the mutagenic call (Test System: AMES SALMONELLA TYPHIMURIUM, Strain/Indicator: TA98, Metabolic Activation: RAT LIVER S-9, AROCLOR 1254, Method: STANDARD PLATE) was “inactive; negative”, the mutagenic call [3] was “inactive; negative” and the mutagenic call (Test System: AMES SALMONELLA TYPHIMURIUM, Strain/Indicator: TA100, Metabolic Activation: RAT LIVER S-9, AROCLOR 1254, Method: STANDARD PLATE) was “inactive; negative”. The mutagenic call (Test System: AMES SALMONELLA TYPHIMURIUM, Strain/Indicator: TA102, Metabolic Activation: NONE, Method: STANDARD PLATE) was “inactive; negative” and the mutagenic call (Test System: AMES SALMONELLA TYPHIMURIUM, Strain/Indicator: TA102, Metabolic Activation: RAT LIVER S-9, AROCLOR 1254, Method: STANDARD PLATE) was “inactive; negative”.
